Data reported in patent US7534421B2, “s-Triazine compounds bearing at least one para-aminobenzalmalonic salt substituent and photoprotective cosmetic compositions comprised thereof” (L'Oreal, priority 2003, dated 2009).
Structures can show the parent of a compound that is named as a salt.

Assay: UV absorption spectrum (λmax, εmax, E1%) of the s-triazine UV screens in solution
Type: physicochemical

SMILES: O=C(O)C(=Cc1ccc(Nc2nc(O)nc(Nc3ccc(C=C(C(=O)O)C(=O)O)cc3)n2)cc1)C(=O)O [2-(4-{4-[4-(2,2-dicarboxyvinyl)phenylamino]-6-hydroxy[1,3,5]triazin-2-ylamino}benzylidene)malonic acid]
- E1% (UV (DMSO/ethanol)): E1% = 691
- εmax (UV (DMSO/ethanol)): εmax = 35 070
- λmax (UV (DMSO/ethanol)): λmax = 336 nm

SMILES: O=C(O)C(=Cc1ccc(Nc2nc(Cl)nc(Nc3ccc(C=C(C(=O)O)C(=O)O)cc3)n2)cc1)C(=O)O [2-(4-{4-chloro-6-[4-(2,2-dicarboxy-vinyl)phenylamino][1,3,5]triazin-2-ylamino}benzylidene)malonic acid]
- E1% (UV (NaOH 0.1 N)): E1% = 932
- εmax (UV (NaOH 0.1 N)): εmax = 64 960
- λmax (UV (NaOH 0.1 N)): λmax = 320 nm

SMILES: O=C(O)C(=Cc1ccc(Nc2nc(Nc3ccc(C=C(C(=O)O)C(=O)O)cc3)nc(Nc3ccc(C=C(C(=O)O)C(=O)O)cc3)n2)cc1)C(=O)O [Example 1, hexasodium salt of 2-(4-{4,6-bis[4-(2,2-dicarboxyvinyl)phenylamino][1,3,5]triazin-2-ylamino}benzylidene)malonic acid]
- E1% (UV (water)): E1% = 1 043
- εmax (UV (water)): εmax = 86 428
- λmax (UV (water)): λmax = 323 nm

SMILES: O=C(O)C(=Cc1ccc(Nc2nc(Nc3ccc(C=C(C(=O)O)C(=O)O)cc3)nc(Nc3ccc(C=C(C(=O)O)C(=O)O)cc3)n2)cc1)C(=O)O [Example 2, hexasodium salt of 2-(4-{4,6-bis[4-(2,2-dicarboxyvinyl)phenylamino][1,3,5]triazin-2-ylamino}benzylidene)malonic acid]
- E1% (UV (water)): E1% = 1 060
- εmax (UV (water)): εmax = 87 820
- λmax (UV (water)): λmax = 323 nm

SMILES: O=C(O)C(=Cc1ccc(Nc2nc(Nc3ccc(C=C(C(=O)O)C(=O)O)cc3)nc(Nc3ccc(C=C(C(=O)O)C(=O)O)cc3)n2)cc1)C(=O)O [Example 3, hexapotassium salt of 2-(4-{4,6-bis[4-(2,2-dicarboxyvinyl)phenylamino][1,3,5]triazin-2-ylamino}benzylidene)malonic acid]
- E1% (UV (water)): E1% = 720
- εmax (UV (water)): εmax = 66 600
- λmax (UV (water)): λmax = 324 nm

SMILES: O=C(O)C(=Cc1ccc(Nc2nc(Nc3ccc(C=C(C(=O)O)C(=O)O)cc3)nc(Nc3ccc(C=C(C(=O)O)C(=O)O)cc3)n2)cc1)C(=O)O [Example 4, hexatriethanolamine salt of 2-(4-{4,6-bis[4-(2,2-dicarboxyvinyl)phenylamino][1,3,5]triazin-2-ylamino}benzylidene)malonic acid]
- E1% (UV (water)): E1% = 523
- εmax (UV (water)): εmax = 83 250
- λmax (UV (water)): λmax = 322 nm

SMILES: O=C(O)C(=Cc1ccc(Nc2nc(O)nc(Nc3ccc(C=C(C(=O)O)C(=O)O)cc3)n2)cc1)C(=O)O [Example 5, tetrasodium salt of 2-(4-{4-[4-(2,2-dicarboxyvinyl)phenylamino]-6-hydroxy[1,3,5]triazin-2-ylamino}benzylidene)malonic acid]
- E1% (UV (NaOH 0.1 N)): E1% = 852
- εmax (UV (NaOH 0.1 N)): εmax = 50 700
- λmax (UV (NaOH 0.1 N)): λmax = 322 nm

SMILES: COc1ccc(-c2nc(Nc3ccc(C=C(C(=O)O)C(=O)O)cc3)nc(Nc3ccc(C=C(C(=O)O)C(=O)O)cc3)n2)cc1 [Example 6, tetrasodium salt of 2-{4-[4-[4-(2,2-dicarboxyvinyl)phenylamino]-6-(4-methoxyphenyl)[1,3,5]triazin-2-ylamino]benzylidene}malonic acid]
- E1% (UV (water)): E1% = 768
- εmax (UV (water)): εmax = 45 900
- λmax (UV (water)): λmax = 318 nm

SMILES: CCCCOc1nc(Nc2ccc(C=C(C(=O)O)C(=O)O)cc2)nc(Nc2ccc(C=C(C(=O)O)C(=O)O)cc2)n1 [Example 7, tetrasodium salt of 2-(4-{4-butoxy-6-[4-(2,2-dicarboxyvinyl)phenylamino][1,3,5]triazin-2-ylamino}benzylidene)malonic acid]
- E1% (UV (water)): E1% = 922
- εmax (UV (water)): εmax = 51 960
- λmax (UV (water)): λmax = 317 nm

SMILES: O=C(O)/C=C/c1ccc(Nc2nc(Nc3ccc(C=C(C(=O)O)C(=O)O)cc3)nc(Nc3ccc(C=C(C(=O)O)C(=O)O)cc3)n2)cc1 [Example 9, pentasodium salt of 2-(4-{4-[4-(2-carboxyvinyl)phenylamino]-6-[4-(2,2-dicarboxy-vinyl)phenylamino][1,3,5]triazin-2-ylamino}benzylidene)malonic acid]
- E1% (UV (water)): E1% = 1 274
- εmax (UV (water)): εmax = 83 070
- λmax (UV (water)): λmax = 327 nm

SMILES: CC12CCC(/C(=C\c3ccc(Nc4nc(Nc5ccc(C=C(C(=O)O)C(=O)O)cc5)nc(Nc5ccc(C=C(C(=O)O)C(=O)O)cc5)n4)cc3)C1=O)C2(C)C (stereo not drawn) [Example 10, tetrasodium salt of 2-(4-{4-[4-(2-dicarboxyvinyl)phenylamino]-6-[4-(4,7,7-trimethyl-3-oxobicyclo[2.2.1]hept-2-ylidenemethyl)phenylamino][1,3,5]triazin-2-ylamino}benzylidene)malonic acid]
- E1% (UV (water)): E1% = 963
- εmax (UV (water)): εmax = 69 210
- λmax (UV (water)): λmax = 329 nm

SMILES: CC12CCC(/C(=C\c3ccc(Nc4nc(Nc5ccc(C=C(C(=O)O)C(=O)O)cc5)nc(Nc5ccc(/C=C6/C(=O)C7(C)CCC6C7(C)C)cc5)n4)cc3)C1=O)C2(C)C [Example 11, disodium salt of 2-(4-{[4,6-bis({4-(4,7,7-trimethyl-3-oxobicyclo[2.2.1]hept-2-ylidene)methyl]phenyl}amino)[1,3,5]triazin-2-ylamino}benzylidene)malonic acid]
- E1% (UV (water)): E1% = 1 238
- εmax (UV (water)): εmax = 98 170
- λmax (UV (water)): λmax = 353 nm

SMILES: O=C(O)C(=Cc1ccc(Nc2nc(Nc3ccc(C=C(C(=O)O)C(=O)O)cc3)nc(Nc3ccc(C=C(C(=O)O)C(=O)O)cc3)n2)cc1)C(=O)O [acid derivative of Example 1, 2-(4-[4,6-bis[4-(2,2-dicarboxyvinyl)phenylamino][1,3,5]triazin-2-ylamino}benzylidene)malonic acid]
- E1% (UV (ethanol)): E1% = 930
- εmax (UV (ethanol)): εmax = 64 820
- λmax (UV (ethanol)): λmax = 348 nm
